Patent publication US9375459B2, “Cyclic peptides with an anti-neoplasic and anti-angiogenic activity” (priority 2011, dated 2016)
Where a SMILES comes first, the peptide text is derived from it.

These compounds were tested on human tumor cells (assay: Cytotoxic activity screening of peptide library on human tumor cell lines, SRB method). Conditions: SRB method; cytotoxic = dose-dependent 50% inhibition of proliferation, GI50 below 100 μM in at least one cell line.
Format: cell-based
Protocol: Negative control cells were cultured on a volume of vehicle equal to that of the experimental samples. An “x-y” curve (dose-response) was established with the percent of surviving cells, compared in respect to the negative control cells, and the following parameters were estimated: 50% growth inhibition (GI50); Total growth inhibition (TGI); and the lethal concentration 50 (LC50), that is the concentration causing the 50% of cell death (Boyd M R, Paull K D, and Rubinstein L R (1992) “Data display and analysis strategies for the NCI Disease Oriented In-Vitro Antitumor Drug Screen, in Cytotoxic Anticancer Drugs: Models and Concept for Drug Discovery and Development” (Baleriote F A, Corbett T H and Baker L H eds) pp 11-34, Kluwer Academia Publishers, Boston).
Were considered as cytotoxic peptides all those peptides being able of inhibiting 50% of the cellular proliferation, in a dose-dependent manner, and showing GI50 values below 100 μM, at least in one of the cell lines studied. The human tumor cell lines used were: HEp-2 (larynx carcinoma), A549 (lung epithelial adenocarcinoma), M14 (melanoma), Colo 205 (colon adenocarcinoma), Ls174T (colon adenocarcinoma), LnCAP (prostate carcinoma), PC-3 (prostate carcinoma) and H 125 (non-small cell lung adenocarcinoma). Represented are primary sequences for the designed peptides, the code used for its generation and their respective cytotoxic capacity on human tumor cells.

SMILES | Cytotoxic activity in vitro
CC[C@H](C)[C@H](NC(=O)[C@H](CCCNC(=N)N)NC(=O)[C@H](CCC(N)=O)NC(=O)[C@H](CC(N)=O)NC(=O)[C@H](C)NC(=O)[C@@H](NC(=O)[C@H](Cc1ccc(O)cc1)NC(=O)CNC(=O)[C@H](CO)NC(=O)[C@H](Cc1ccccc1)NC(=O)[C@H](CC(=O)O)NC(=O)[C@H](Cc1ccccc1)NC(=O)[C@@H](NC(=O)[C@H](CC(=O)O)NC(=O)[C@H](CC(N)=O)NC(=O)CNC(=O)CNC(=O)[C@H](C)NC(=O)[C@@H](N)CC(=O)O)[C@@H](C)O)[C@@H](C)O)C(=O)N[C@@H](CC(N)=O)C(N)=O [Peptide M07P39] (H-DAGGNDTFDFSGYTANQRIN-NH2) | − (symbol − indicates its absence, following criteria established in Example 2)
CC[C@H](C)[C@H](NC(=O)[C@H](C)NC(=O)[C@H](CC(N)=O)NC(=O)[C@H](CCC(=O)O)NC(=O)[C@@H](NC(=O)[C@@H](NC(=O)[C@@H](NC(=O)CNC(=O)[C@H](C)NC(=O)[C@H](C)NC(=O)[C@@H](NC(=O)[C@H](CO)NC(=O)[C@@H](NC(=O)[C@H](CC(N)=O)NC(=O)CNC(=O)[C@H](CCCCN)NC(=O)[C@H](CC(C)C)NC(=O)CN)C(C)C)[C@@H](C)CC)C(C)C)[C@@H](C)O)[C@@H](C)CC)C(=O)NCC(=O)NCC(N)=O [Peptide A07P44] (H-GLKGNVSIAAGVTIENAIGG-NH2) | − (symbol − indicates its absence, following criteria established in Example 2)
CC[C@H](C)[C@H](NC(=O)[C@H](Cc1ccccc1)NC(=O)[C@H](CC(=O)O)NC(=O)[C@@H](NC(=O)[C@H](C)NC(=O)[C@@H](NC(=O)[C@@H](N)CC(=O)O)C(C)C)[C@@H](C)O)C(=O)N[C@H](C(N)=O)C(C)C [Peptide U07P78, DVATDFIV- amide] (H-DVATDFIV-NH2) | − (symbol − indicates its absence, following criteria established in Example 2)
CC[C@H](C)[C@H](NC(=O)[C@H](CCCNC(=N)N)NC(=O)[C@H](CCC(N)=O)NC(=O)[C@H](CC(N)=O)NC(=O)[C@H](C)NC(=O)[C@@H](NC(=O)[C@H](Cc1ccc(O)cc1)NC(=O)CNC(=O)[C@@H](N)CO)[C@@H](C)O)C(=O)N[C@@H](CC(N)=O)C(=O)N[C@@H](CC(C)C)C(=O)N[C@@H](CC(N)=O)C(=O)N[C@@H](CCC(=O)O)C(=O)N[C@@H](CCCCN)C(=O)N[C@@H](CO)C(=O)N[C@@H](Cc1ccccc1)C(=O)N[C@@H](CO)C(=O)N[C@@H](CC(=O)O)C(=O)N[C@H](C(=O)NCC(N)=O)C(C)C [Peptide A07P42] (H-SGYTANQRINLNEKSFSDVG-NH2) | − (symbol − indicates its absence, following criteria established in Example 2)
CC[C@H](C)[C@H](N)C(=O)N[C@@H](Cc1ccccc1)C(=O)N[C@H](C(=O)N[C@@H](Cc1ccccc1)C(=O)N[C@@H](CO)C(=O)N[C@@H](C)C(=O)N[C@@H](C)C(=O)N[C@@H](CO)C(=O)N[C@@H](CC(=O)O)C(=O)N[C@@H](CO)C(=O)N[C@@H](C)C(=O)N1CCC[C@H]1C(=O)NCC(=O)N[C@@H](C)C(=O)N[C@@H](CO)C(=O)N[C@@H](CC(=O)O)C(=O)N[C@@H](Cc1c[nH]c2ccccc12)C(=O)N[C@H](C(=O)N[C@@H](CCCNC(=N)N)C(=O)N[C@@H](CC(=O)O)C(N)=O)[C@@H](C)CC)C(C)C [Peptide O07P103] (H-IFVFSAASDSAPGASDWIRD-NH2) | − (symbol − indicates its absence, following criteria established in Example 2)
CC[C@H](C)[C@H](NC(=O)[C@H](Cc1ccccc1)NC(=O)[C@H](CC(=O)O)NC(=O)[C@H](CO)NC(=O)[C@H](CO)NC(=O)[C@H](CC(N)=O)NC(=O)[C@H](C)NC(=O)[C@H](CCC(=O)O)NC(=O)[C@H](CCCCN)NC(=O)[C@H](CC(N)=O)NC(=O)[C@H](Cc1ccccc1)NC(=O)[C@H](Cc1ccccc1)NC(=O)[C@@H](N)CO)C(=O)N[C@@H](Cc1c[nH]cn1)C(=O)N[C@@H](Cc1ccccc1)C(=O)N[C@H](C(=O)N[C@@H](CC(=O)O)C(=O)N[C@@H](Cc1c[nH]cn1)C(=O)N[C@@H](Cc1ccccc1)C(=O)N[C@@H](CO)C(N)=O)C(C)C [Peptide O07P106] (H-SFFNKEANSSDFIHFVDHFS-NH2) | − (symbol − indicates its absence, following criteria established in Example 2)
CC[C@H](C)[C@H](NC(=O)[C@@H](NC(=O)[C@H](CC(=O)O)NC(=O)[C@H](CC(N)=O)NC(=O)CNC(=O)[C@@H](N)CO)C(C)C)C(=O)N[C@H](C(=O)NCC(=O)N[C@@H](CC(N)=O)C(=O)N[C@@H](C)C(=O)N[C@@H](C)C(=O)N[C@@H](CC(N)=O)C(=O)N[C@@H](CC(N)=O)C(=O)N[C@H](C(=O)N[C@@H](CC(C)C)C(=O)N[C@@H](CCCCN)C(=O)NCC(=O)NCC(=O)N[C@@H](C)C(=O)NCC(N)=O)C(C)C)C(C)C [Peptide Y07P48] (H-SGNDVIVGNAANNVLKGGAG-NH2) | − (symbol − indicates its absence, following criteria established in Example 2)
CC[C@H](C)[C@H](NC(=O)[C@H](Cc1ccccc1)NC(=O)[C@H](CC(=O)O)NC(=O)[C@@H](NC(=O)[C@H](C)NC(=O)[C@@H](NC(=O)[C@H](CC(=O)O)NC(=O)[C@@H](NC(=O)[C@H](CCC(N)=O)NC(=O)CNC(=O)[C@@H](NC(=O)[C@@H](NC(=O)[C@H](CCCCN)NC(=O)[C@@H](NC(=O)[C@H](CC(C)C)NC(=O)[C@@H](N)Cc1ccccc1)C(C)C)[C@@H](C)CC)C(C)C)C(C)C)C(C)C)[C@@H](C)O)C(=O)N[C@H](C(N)=O)C(C)C [Peptide E07P03, FLVKIVGQVDVATDFIV- amide] (H-FLVKIVGQVDVATDFIV-NH2) | − (symbol − indicates its absence, following criteria established in Example 2)
CC[C@H](C)[C@H](NC(=O)[C@H](C)NC(=O)[C@H](C)NC(=O)[C@@H](NC(=O)[C@H](CC(=O)O)NC(=O)[C@H](CC(=O)O)NC(=O)[C@H](CC(C)C)NC(=O)[C@@H](N)CC(C)C)[C@@H](C)CC)C(=O)N[C@@H](CCC(N)=O)C(=O)N[C@@H](Cc1c[nH]cn1)C(=O)N[C@@H](CC(C)C)C(=O)N[C@@H](Cc1ccc(O)cc1)C(=O)NCC(=O)N[C@@H](C)C(=O)N[C@@H](CC(N)=O)C(=O)N1CCC[C@H]1C(=O)N[C@@H](CO)C(=O)N[C@H](C(=O)N[C@@H](CCCNC(=N)N)C(=O)N[C@H](C(N)=O)[C@@H](C)O)[C@@H](C)O [Peptide E07P05] (H-LLDDIAAIQHLYGANPSTRT-NH2) | − (symbol − indicates its absence, following criteria established in Example 2)
CC(C)C[C@H](NC(=O)[C@H](C)NC(=O)[C@H](CCC(=O)O)NC(=O)CNC(=O)[C@H](C)NC(=O)[C@@H](NC(=O)CN)[C@@H](C)O)C(=O)N[C@@H](CC(C)C)C(=O)N[C@@H](CO)C(=O)N[C@@H](Cc1ccc(O)cc1)C(=O)N[C@@H](CC(N)=O)C(=O)N[C@@H](C)C(=O)N[C@@H](CO)C(=O)N[C@@H](CO)C(=O)N[C@@H](CC(N)=O)C(=O)N[C@H](C(=O)N[C@H](C(=O)N[C@@H](CC(=O)O)C(=O)N[C@@H](CC(C)C)C(=O)N[C@@H](CO)C(N)=O)[C@@H](C)O)C(C)C [Peptide O07P108] (H-GTAGEALLSYNASSNVTDLS-NH2) | − (symbol − indicates its absence, following criteria established in Example 2)
CC[C@H](C)[C@H](NC(=O)[C@H](C)NC(=O)[C@H](C)NC(=O)[C@@H](NC(=O)[C@H](CC(=O)O)NC(=O)[C@H](CC(=O)O)NC(=O)[C@H](CC(C)C)NC(=O)[C@H](CC(C)C)NC(=O)[C@@H]1CCCN1C(=O)[C@H](C)NC(=O)[C@H](C)NC(=O)[C@H](C)NC(=O)[C@H](Cc1ccc(O)cc1)NC(=O)[C@H](Cc1c[nH]cn1)NC(=O)CNC(=O)CNC(=O)[C@H](CC(N)=O)NC(=O)[C@@H](N)CC(=O)O)[C@@H](C)CC)C(=O)N[C@@H](CCC(N)=O)C(=O)N[C@@H](Cc1c[nH]cn1)C(N)=O [Peptide E07P01] (H-DNGGHYAAAPLLDDIAAIQH-NH2) | − (symbol − indicates its absence, following criteria established in Example 2)
CC(C)C[C@H](N)C(=O)N[C@@H](Cc1ccc(O)cc1)C(=O)NCC(=O)N[C@@H](C)C(=O)N[C@@H](CC(N)=O)C(=O)N1CCC[C@H]1C(=O)N[C@@H](CO)C(=O)N[C@H](C(=O)N[C@@H](CCCNC(=N)N)C(=O)N[C@H](C(=O)NCC(=O)N[C@@H](CC(=O)O)C(=O)N[C@H](C(=O)N[C@H](C(=O)N[C@@H](Cc1ccc(O)cc1)C(=O)NCC(=O)N[C@@H](Cc1ccccc1)C(=O)N[C@@H](CC(N)=O)C(=O)N[C@@H](CO)C(=O)N[C@@H](CC(N)=O)C(N)=O)C(C)C)[C@@H](C)O)[C@@H](C)O)[C@@H](C)O [Peptide E07P06] (H-LYGANPSTRTGDTVYGFNSN-NH2) | − (symbol − indicates its absence, following criteria established in Example 2)
CC(C)C[C@H](NC(=O)[C@@H](NC(=O)[C@H](CC(=O)O)NC(=O)[C@H](CC(N)=O)NC(=O)CNC(=O)[C@H](C)NC(=O)CNC(=O)CNC(=O)[C@H](CCCCN)NC(=O)[C@H](CC(C)C)NC(=O)[C@@H](NC(=O)[C@H](CC(N)=O)NC(=O)[C@H](CC(N)=O)NC(=O)[C@H](C)N)C(C)C)C(C)C)C(=O)N[C@@H](Cc1ccccc1)C(=O)NCC(=O)NCC(=O)NCC(=O)NCC(=O)N[C@@H](C)C(N)=O [Peptide A07P43] (H-ANNVLKGGAGNDVLFGGGGA-NH2) | − (symbol − indicates its absence, following criteria established in Example 2)

Same assay, conditions: peptide library screening

SMILES | cytotoxic / biological activity in vitro on tumor cells
CC(C)C[C@H](N)C(=O)N[C@@H](Cc1ccc(O)cc1)C(=O)NCC(=O)N[C@@H](C)C(=O)N[C@@H](CC(N)=O)C(=O)N1CCC[C@H]1C(=O)N[C@@H](CO)C(=O)N[C@H](C(=O)N[C@@H](CCCNC(=N)N)C(=O)N[C@H](C(=O)NCC(=O)N[C@@H](CC(=O)O)C(=O)N[C@H](C(=O)N[C@H](C(=O)N[C@@H](Cc1ccc(O)cc1)C(=O)NCC(=O)N[C@@H](Cc1ccccc1)C(=O)N[C@@H](CC(N)=O)C(=O)N[C@@H](CO)C(=O)N[C@@H](CC(N)=O)C(N)=O)C(C)C)[C@@H](C)O)[C@@H](C)O)[C@@H](C)O [Peptide E07P06] (H-LYGANPSTRTGDTVYGFNSN-NH2) | no cytotoxic activity
